Measured values published in patent US4362736A, “Guanidinothiazole compounds, and medical compositions containing them” (Yamanouchi Pharmaceutical Co., Ltd., priority 1979, dated 1982).
Where a name gives a salt, the structure may show the parent alone.

Assays:
Acute toxicity in mice = conditions: mouse, in vivo, iv, 7 days observation, up and down method; read-out: (C) LD50 in mice
Method: Drugs were injected intravenously in male ICR mice weighing about 35 g at a rate of 0.1 ml/10 g/10 sec and the animals were kept under observation for 7 days. LD50 values were determined by the up and down method using 10 animals. The data are shown in Table I, under column entitled (C).

Gastric acid secretion [1] = assay: Gastric acid secretion in pylorus-ligated rats; assay type: in vivo, Male Wister rats; conditions: Rattus norvegicus, intraduodenal, 4 hrs., probit method, read-out: (B) Pylorus-ligated rats ED50
Method: Male Wister rats weighing about 200 g were deprived of food for 24 hrs. but allowed free access to water prior to the experiments in individual cages. […] Test compounds were intraduodenally given immediately after the ligation of pylorus. The animals were sacrificed 4 hrs. after drug administration and gastric contents were collected. […] The percent inhibition of gastric secretion by each dose of drugs was calculated from the acid outputs of control and of treated groups. ED50 values were determined by the probit method.

Gastric acid secretion [2] = assay: Gastric acid secretion in anesthetized dogs (histamine-induced); assay type: in vivo, Mongrel dogs; conditions: Canis lupus familiaris, iv, histamine infusion 160 μg/Kg-hr, dose producing 50% inhibition of acid output
Method: Mongrel dogs weighing 8 to 15 Kg were deprived of food for 24 hrs. and anesthetized intravenously with pentobarbital (30 mg/Kg). […] The gastric juice was collected from the gastric cannula by gravity drainage every 15 min. Test compounds were given intravenously after gastric secretion induced by a continuous intravenous infusion of histamine (160 μg/Kg-hr) reached a steady state.

H2 -receptor = conditions: Ash and Schild; Black et al.; cited from earlier work

N#CNC(=N)CCSCc1csc(NC(=N)N)n1 [Example 3, N-cyano-3-[(2-guanidinothiazol-4-yl)methylthio]propionamidine]
LD50 at 168 h (Acute toxicity in mice): 147 mg/kg
ED50 (Gastric acid secretion [1]): 13.8 mg/kg
ED50 (Gastric acid secretion [2]): 0.0183 ± 0.0007 mg/kg

NC(=O)N=C(N)CCSCc1csc(N=C(N)N)n1 [Example 9, N-carbamoyl-3-[(2-guanidinothiazol-4-yl)methylthio]propionamidine.di-hydrochloride]
LD50 at 168 h (Acute toxicity in mice): 97.8 mg/kg
ED50 (Gastric acid secretion [1]): 12.7 mg/kg
ED50 (Gastric acid secretion [2]): 0.0064 ± 0.0006 mg/kg

COc1ccc(CN(CCN(C)C)c2ccccn2)cc1 [mepyramine]
inhibition of histamine effects on gastric acid secretion and heart rate in isolated guinea pig atrium (H2 -receptor): not inhibited

C/N=C(\S)NCCSCc1[nH]cnc1C [metiamide]
inhibition of histamine effects on gastric acid secretion and heart rate in isolated guinea pig atrium (H2 -receptor): antagonized
